Counter-ions that a name gives are not always drawn.
Tests used:
[1] = target: adrenergic β1 adrenoreceptor (Homo sapiens, UniProt P08588); conditions: bolus followed by a continuous infusion; cited from earlier work
healthy volunteers [2] = experiment: 24 h long-term infusion study: local tolerability and safety; type: in vivo, human; conditions: 24 h infusion
Procedure: (§1) A single centre prospective, randomized, double blind, crossover, pharmacokinetic, safety and tolerability study to compare long-term infusion administration of AOP LDLL600 against esmolol in healthy volunteers was performed.
(§2) Landiolol hydrochloride lyophilized (LDLL600) comprises 600 mg landiolol hydrochloride, 600 mg mannitol, pH 6.5. The primary packing of LDLL600 is 50 ml vial, the reconstitution volume is 50 ml and the final product concentration is 12 mg/mL landiolol HCl.
(§3) 12 subjects were administered AOP LDLL600 or Esmolol (Brevibloc, 2500 mg/250 ml) in 1:1 ratio in double-blind, randomized, cross-over setting. PK, systemic cardiovascular and local tolerability and safety of the 24 h-long term infusions of three dose levels of both IMPs during each treatment period were assessed.
(§4) Landiolol was infused over 24 h in a dose of 10 μg/KG/min (2 hrs), followed by 20 μg/KG/min (2 hrs), followed by 40 μg/KG/min for 20 hrs.
(§5) Dosing algorithm was body weight divided by 20, 10 and 5 in ml/h giving 10, 20 and 40 μg/KG/min at a concentration of 12 mg/ml. No severe adverse drug reactions, mild local reactions, 1 severe local reaction (Esmolol High Dose).
(§6) Landiolol was infused over 24 h in a dose of 10, 20 and 40 μg/KG/min, i.e. 10 μg/KG/min landiolol were administered for 2 hrs, followed by 2 hrs administration of 20 μg/KG/min and further followed by 20 hrs administration of 40 μg/KG/min.

healthy volunteers [3] = experiment: 24 h long-term infusion study, AOP LDLL600 against esmolol: heart rate; type: in vivo, human
Procedure: as §1, §2, §3, §4, §5, §6
Post-infusion follow up measurements were performed immediately after 20 hrs administration study, i.e. 2, 4 min etc. after stop of landiolol administration.

[4] = FU Predose (end of 20 h HD, infusion stop)
[5] = FU post-infusion, 20 h 2 min (2 min after infusion stop)
[6] = FU post-infusion, 20 h 4 min (4 min after infusion stop)
[7] = FU post-infusion, 20 h 6 min (6 min after infusion stop)
[8] = FU post-infusion, 20 h 8 min (8 min after infusion stop)
[9] = FU post-infusion, 20 h 12 min (12 min after infusion stop)
[10] = FU post-infusion, 20 h 16 min (16 min after infusion stop)
[11] = FU post-infusion, 20 h 20 min (20 min after infusion stop)
[12] = FU post-infusion, 20 h 30 min (30 min after infusion stop)
[13] = FU post-infusion, 21 h (1 h after infusion stop)
[14] = FU post-infusion, 22 h (2 h after infusion stop)
[15] = FU post-infusion, 24 h (4 h after infusion stop)
[16] = FU post-infusion, 26 h (6 h after infusion stop)
[17] = HD infusion (landiolol 40, esmolol 200 μg/kg/min, after LD and MD), 2 min
[18] = HD infusion (landiolol 40, esmolol 200 μg/kg/min, after LD and MD), 3 min
[19] = HD infusion (landiolol 40, esmolol 200 μg/kg/min, after LD and MD), 4 min
[20] = HD infusion (landiolol 40, esmolol 200 μg/kg/min, after LD and MD), 6 min
[21] = HD infusion (landiolol 40, esmolol 200 μg/kg/min, after LD and MD), 8 min
[22] = HD infusion (landiolol 40, esmolol 200 μg/kg/min, after LD and MD), 12 min
[23] = HD infusion (landiolol 40, esmolol 200 μg/kg/min, after LD and MD), 16 min
[24] = HD infusion (landiolol 40, esmolol 200 μg/kg/min, after LD and MD), 20 min
[25] = HD infusion (landiolol 40, esmolol 200 μg/kg/min, after LD and MD), 30 min
[26] = HD infusion (landiolol 40, esmolol 200 μg/kg/min, after LD and MD), 60 min
[27] = HD infusion (landiolol 40, esmolol 200 μg/kg/min, after LD and MD), 90 min
[28] = HD infusion (landiolol 40, esmolol 200 μg/kg/min, after LD and MD), 2 h
[29] = HD infusion (landiolol 40, esmolol 200 μg/kg/min, after LD and MD), 4 h
[30] = HD infusion (landiolol 40, esmolol 200 μg/kg/min, after LD and MD), 8 h
[31] = HD infusion (landiolol 40, esmolol 200 μg/kg/min, after LD and MD), 12 h
[32] = HD infusion (landiolol 40, esmolol 200 μg/kg/min, after LD and MD), 16 h
[33] = HD infusion (landiolol 40, esmolol 200 μg/kg/min, after LD and MD), 20 h (end)
[34] = LD infusion (landiolol 10, esmolol 50 μg/kg/min), 2 min

Sequence of adrenergic β1 adrenoreceptor (P08588 whole entry, the tested form may be a part): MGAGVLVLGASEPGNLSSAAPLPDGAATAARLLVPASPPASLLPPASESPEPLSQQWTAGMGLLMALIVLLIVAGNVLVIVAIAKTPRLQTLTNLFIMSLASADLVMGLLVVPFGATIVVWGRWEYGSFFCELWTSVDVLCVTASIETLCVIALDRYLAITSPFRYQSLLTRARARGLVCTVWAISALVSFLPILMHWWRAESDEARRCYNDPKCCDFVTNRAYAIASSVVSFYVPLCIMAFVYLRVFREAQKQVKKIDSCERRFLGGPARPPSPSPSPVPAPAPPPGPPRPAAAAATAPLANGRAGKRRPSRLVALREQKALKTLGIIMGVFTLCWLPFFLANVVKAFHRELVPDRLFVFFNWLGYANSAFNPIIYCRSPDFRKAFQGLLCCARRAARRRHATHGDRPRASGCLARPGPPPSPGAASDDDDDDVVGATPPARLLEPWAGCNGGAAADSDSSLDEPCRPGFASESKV

Compound: COC(=O)CCc1ccc(OCC(O)CNC(C)C)cc1 (stereo not drawn) [Esmolol, Esmolol hydrochloride]
- onset of activity [1]: ≤ 2 min
- time to 90% of steady-state beta-blockade [1]: ≤ 5 min
- local reactions (percent of subjects) (healthy volunteers [2]; three dose levels): 50.0%
- local reactions (subjects/total) (healthy volunteers [2]; three dose levels): 7/14
- severe local reaction (number) (healthy volunteers [2]; Esmolol High Dose (200 μg/kg/min)): 1
- change of heart rate from predose, Mean (SD) (healthy volunteers [3]; [4]): 1.5 (9.05) beats per minute
- heart rate, Mean (SD) (healthy volunteers [3]; [4]): 69.1 (6.40) beats per minute
- change of heart rate from predose, Mean (SD) (healthy volunteers [3]; [5]): 1.4 (7.57) beats per minute
- heart rate, Mean (SD) (healthy volunteers [3]; [5]): 69.0 (4.88) beats per minute
- change of heart rate from predose, Mean (SD) (healthy volunteers [3]; [6]): 3.6 (8.77) beats per minute
- heart rate, Mean (SD) (healthy volunteers [3]; [6]): 71.3 (7.04) beats per minute
- change of heart rate from predose, Mean (SD) (healthy volunteers [3]; [7]): 5.4 (8.11) beats per minute
- heart rate, Mean (SD) (healthy volunteers [3]; [7]): 73.1 (7.89) beats per minute
- change of heart rate from predose, Mean (SD) (healthy volunteers [3]; [8]): 5.4 (8.10) beats per minute
- heart rate, Mean (SD) (healthy volunteers [3]; [8]): 73.1 (7.57) beats per minute
- change of heart rate from predose, Mean (SD) (healthy volunteers [3]; [9]): 7.1 (8.43) beats per minute
- heart rate, Mean (SD) (healthy volunteers [3]; [9]): 74.7 (8.62) beats per minute
- change of heart rate from predose, Mean (SD) (healthy volunteers [3]; [10]): 6.4 (7.44) beats per minute
- heart rate, Mean (SD) (healthy volunteers [3]; [10]): 74.0 (7.99) beats per minute
- change of heart rate from predose, Mean (SD) (healthy volunteers [3]; [11]): 6.8 (7.17) beats per minute
- heart rate, Mean (SD) (healthy volunteers [3]; [11]): 74.4 (7.04) beats per minute
- change of heart rate from predose, Mean (SD) (healthy volunteers [3]; [12]): 9.1 (8.04) beats per minute
- heart rate, Mean (SD) (healthy volunteers [3]; [12]): 76.8 (8.51) beats per minute
- change of heart rate from predose, Mean (SD) (healthy volunteers [3]; [13]): 5.5 (8.15) beats per minute
- heart rate, Mean (SD) (healthy volunteers [3]; [13]): 73.1 (7.50) beats per minute
- change of heart rate from predose, Mean (SD) (healthy volunteers [3]; [14]): 2.6 (8.02) beats per minute
- heart rate, Mean (SD) (healthy volunteers [3]; [14]): 70.2 (7.06) beats per minute
- change of heart rate from predose, Mean (SD) (healthy volunteers [3]; [15]): 4.5 (9.51) beats per minute
- heart rate, Mean (SD) (healthy volunteers [3]; [15]): 72.1 (7.37) beats per minute
- change of heart rate from predose, Mean (SD) (healthy volunteers [3]; [16]): 5.1 (10.85) beats per minute
- heart rate, Mean (SD) (healthy volunteers [3]; [16]): 72.8 (9.74) beats per minute
- change of heart rate from predose, Mean (SD) (healthy volunteers [3]; HD Predose (end of 2 h MD)): −3.9 (7.75) beats per minute
- heart rate, Mean (SD) (healthy volunteers [3]; HD Predose (end of 2 h MD)): 63.7 (4.86) beats per minute
- change of heart rate from predose, Mean (SD) (healthy volunteers [3]; [17]): −2.5 (8.96) beats per minute
- heart rate, Mean (SD) (healthy volunteers [3]; [17]): 65.1 (7.10) beats per minute
- change of heart rate from predose, Mean (SD) (healthy volunteers [3]; [18]): −3.2 (8.99) beats per minute
- heart rate, Mean (SD) (healthy volunteers [3]; [18]): 64.4 (4.38) beats per minute
- change of heart rate from predose, Mean (SD) (healthy volunteers [3]; [19]): −3.1 (8.16) beats per minute
- heart rate, Mean (SD) (healthy volunteers [3]; [19]): 64.5 (4.74) beats per minute
- change of heart rate from predose, Mean (SD) (healthy volunteers [3]; [20]): −2.8 (8.97) beats per minute
- heart rate, Mean (SD) (healthy volunteers [3]; [20]): 64.9 (4.29) beats per minute
- change of heart rate from predose, Mean (SD) (healthy volunteers [3]; [21]): −3.7 (10.45) beats per minute
- heart rate, Mean (SD) (healthy volunteers [3]; [21]): 63.9 (7.14) beats per minute
- change of heart rate from predose, Mean (SD) (healthy volunteers [3]; [22]): −2.9 (9.19) beats per minute
- heart rate, Mean (SD) (healthy volunteers [3]; [22]): 64.8 (4.39) beats per minute
- change of heart rate from predose, Mean (SD) (healthy volunteers [3]; [23]): −3.3 (8.32) beats per minute
- heart rate, Mean (SD) (healthy volunteers [3]; [23]): 64.4 (7.16) beats per minute
- change of heart rate from predose, Mean (SD) (healthy volunteers [3]; [24]): −0.4 (11.69) beats per minute
- heart rate, Mean (SD) (healthy volunteers [3]; [24]): 67.3 (7.26) beats per minute
- change of heart rate from predose, Mean (SD) (healthy volunteers [3]; [25]): −2.3 (9.26) beats per minute
- heart rate, Mean (SD) (healthy volunteers [3]; [25]): 65.4 (5.69) beats per minute
- change of heart rate from predose, Mean (SD) (healthy volunteers [3]; [26]): 4.9 (9.60) beats per minute
- heart rate, Mean (SD) (healthy volunteers [3]; [26]): 72.6 (6.64) beats per minute
- change of heart rate from predose, Mean (SD) (healthy volunteers [3]; [27]): 5.9 (8.95) beats per minute
- heart rate, Mean (SD) (healthy volunteers [3]; [27]): 73.6 (4.57) beats per minute
- change of heart rate from predose, Mean (SD) (healthy volunteers [3]; [28]): 6.2 (9.32) beats per minute
- heart rate, Mean (SD) (healthy volunteers [3]; [28]): 73.9 (4.55) beats per minute
- change of heart rate from predose, Mean (SD) (healthy volunteers [3]; [29]): 2.8 (9.60) beats per minute
- heart rate, Mean (SD) (healthy volunteers [3]; [29]): 70.4 (5.03) beats per minute
- change of heart rate from predose, Mean (SD) (healthy volunteers [3]; [30]): 0.3 (10.34) beats per minute
- heart rate, Mean (SD) (healthy volunteers [3]; [30]): 67.9 (5.95) beats per minute
- change of heart rate from predose, Mean (SD) (healthy volunteers [3]; [31]): 0.7 (10.94) beats per minute
- heart rate, Mean (SD) (healthy volunteers [3]; [31]): 68.4 (8.30) beats per minute
- change of heart rate from predose, Mean (SD) (healthy volunteers [3]; [32]): 0.3 (9.27) beats per minute
- heart rate, Mean (SD) (healthy volunteers [3]; [32]): 67.9 (7.49) beats per minute
- change of heart rate from predose, Mean (SD) (healthy volunteers [3]; [33]): 1.5 (9.05) beats per minute
- heart rate, Mean (SD) (healthy volunteers [3]; [33]): 69.1 (6.40) beats per minute
- change of heart rate from predose, Mean (SD) (healthy volunteers [3]; [34]): −0.7 (6.22) beats per minute
- heart rate, Mean (SD) (healthy volunteers [3]; [34]): 66.9 (6.28) beats per minute
